Experiments:
[1] = tested on: Methylcholanthren-induzierte Fibrosarkomzellinie (MethA); experiment: Tumour growth inhibition assay (TGI), spontaneous proliferation of MethA cells, [3H]-thymidine incorporation; format: cell-based, CB6F₁-Mäusen
Experimental: Die Methylcholanthren-induzierte Fibrosarkomzellinie (MethA) wurde aus der eigenen Tumorzellbank erhalten und intraperitoneal in CB6F₁-Mäusen passagiert.
1 x 10⁴ MethA-Zellen werden mit der zu testenden Imexonkonzentration in DMEM-Medium über 48 h inkubiert. 3 h vor Ablauf der Inkubationszeit wird mit [³H]-Thymidin gepulst, geerntet und ausgewertet wie bei Beispiel 2 beschrieben.

[2] = tested on: Leukozyten; Antikörper bildende Milzzellen; settings: after application of Imexon; cited from earlier work
[3] = tested on: Walker-Sarkoma 256; settings: rats, after application of Imexon; cited from earlier work
[4] = tested on: Mäusestamm MRL 1pr/1pr; experiment: Autoimmune disease model in MRL mice (lymphadenomas, antinuclear autoantibodies), prophylactic and therapeutic treatment; format: in vivo, Maus
Source text: B. Synthese von antinukleâren Autoantikörpern. Zur Untersuchung des prophylaktischen Effektes von Imexon auf die Entwicklung dieser Symptome wurden 11 Wochen alte MRL Mäuse einmal täglich intraperitoneal mit den angegebenen Dosierungen Imexon und Cyclophosphamid behandelt. Dokumentiert wurden die Zahl der Lymphadenome und die Konzentration antinukleärer Antikörper. Bei der Untersuchung zur therapeutischen Potenz von Imexon wurden MRL Mäuse, […] jedes Tier mindestens ein Lymphadenom […] an Imexon und Cyclophosphamid behandelt. Die Meßparameter waren wiederum Zahl der Lymphadenome sowie Autoantikö[…].

[5] = tested on: humane B-Lymphozyten; experiment: BCGF-dependent proliferation of human B lymphocytes, [3H]-thymidine incorporation; format: cell-based
Experimental: Die Anreicherung von peripheren humanen B-Zellen und der BCGF-Proliferationsassay wurden wie folgt durchgeführt (vgl. a. Eur. J. Immun. 16, 350 (1986)): Angereicherte humane B-Lymphozyten werden zweimal gewaschen mit komplettiertem RPMI 1640 Medium (Streptomycin/Penicillin, L-Glutamin, 2-Mercaptoethanol, FCS) und auf 3 x 10⁵ Zellen/ml eingestellt. […] dieser Suspension werden jeweils pro Well in Mikrotiterplatten pipettiert. Als Pseudoantigen werden […] einer Lösung von HFCµS-IgG (300 µg/ml) zugegeben und als Wachstumsfaktor 20 µl BCGF (Cellular Products Incorporated) hinzugefügt. Dazu werden 20 µl der zu testenden Verbindung in 10facher Konzentration pipettiert. Die Kulturen werden insgesamt 140 h bei 37°, 5 % CO₂ und 95 % relativen Luftfeuchtigkeit inkubiert. 16 h vor Ablauf der Inkubationszeit wird jede Kultur mit 1 µ Ci einer [³H]-Thymidin-Lösung gepulst. Am Ende des Versuches werden die Zellen mit einem Harvester geerntet und die eingebaute Radioaktivität in einem Flüssigszintillationszähler bestimmt.

[6] = tested on: Milzzellen; experiment: Concanavalin A (ConA)-induced proliferation of murine splenocytes (LTT), [3H]-thymidine incorporation; format: cell-based, CB6F₁-Mäusen; settings: for LTT (Splenozyten, ConA) ^3H-TdR cpm (n=6) x̄: 0,5 µg/ml ConA
Experimental: Milzzellen (4 x 10⁵) von CB6F₁-Mäusen werden mit 0,5 µg/ml ConA in Mikrotiterplatten (Nunc GmbH, Wiesbaden, FRG) und verschiedenen Konzentrationen von Imexon in 6-fach Ansätzen für insgesamt 48 h inkubiert. 5 h vor Ablauf der Inkubationszeit werden die Kulturen mit [³H]-Thymidin gepulst und anschließend auf Glasfiberfilterplattchen mittels eines Multisample Harvester (Skatron A.S., Lier, Norwegen) geerntet. Die Filterplättchen werden getrocknet, und die Radioaktivität in einem Packard Szintillationsspektrometer bestimmt.

[7] = tested on: humaner Lymphozyten; experiment: Phytohaemagglutinin (PHA)-induced proliferation of human lymphocytes (LTT), [3H]-thymidine incorporation; format: cell-based
Experimental: 1 ml humanes Vollblut wird mit 500 µg PHA-Lösung (500 µg/ml) und 48 ml DMEM-Mediun verdünnt. Jeweils 200 µl dieses Ansatzes werden mit 20 µl der zu testenden Imexonkonzentration in 6-fach-Ansätzen gemischt und 4 Tage inkubiert. Nach Pulsen mit [³H]-Thymidin wird weitere 24 h inkubiert, geerntet und ausgewertet wie bei Beispiel 2 beschrieben.

[8] = relative to suppression of BCGF-induced B-cell proliferation, not or only at these concentrations
[9] = prophylactic, 11-week-old MRL mice, once daily intraperitoneal
[10] = therapeutic, lymphoma-bearing MRL mice (ca. 14 weeks old), once daily
[11] = Homo sapiens, Lymphocyte, 140 h, read-out: BCGF (humane B-Lym-phozyten) %Hemmung

N=C1NC(=O)N2CC12 (stereo not drawn) [Imexon, 4-Imino-1,3-diazabicyclo-(3.1.0)-hexan-2-on]
TGI (MethA) ^3H-TdR cpm (n=6) x̄ ([1]; Imexon 0.1 µg/ml, 48 h): 31722 cpm
TGI (MethA) ^3H-TdR cpm (n=6) x̄ ([1]; Imexon 0.3 µg/ml, 48 h): 37593 cpm
TGI (MethA) ^3H-TdR cpm (n=6) x̄ ([1]; Imexon 1 µg/ml, 48 h): 35475 cpm
TGI (MethA) ^3H-TdR cpm (n=6) x̄ ([1]; Imexon 3 µg/ml, 48 h): 35473 cpm
TGI (MethA) ^3H-TdR cpm (n=6) x̄ ([1]; Imexon 10 µg/ml, 48 h): 21913 cpm
TGI (MethA) ^3H-TdR cpm (n=6) x̄ ([1]; Imexon 30 µg/ml, 48 h): 911 cpm
TGI (MethA) ^3H-TdR cpm (n=6) x̄ ([1]; Imexon 100 µg/ml, 48 h): 534 cpm
inhibition at 0.1 µg/mL ([1]; Meth-A, 48 h, Imexon 0.1 µg/ml, read-out: TGI (MethA) %Hemmung): 7%
inhibition at 0.3 µg/mL ([1]; Meth-A, 48 h, Imexon 0.3 µg/ml, read-out: TGI (MethA) %Hemmung): -11%
inhibition at 1 µg/mL ([1]; Meth-A, 48 h, Imexon 1 µg/ml, read-out: TGI (MethA) %Hemmung): -4%
inhibition at 3 µg/mL ([1]; Meth-A, 48 h, Imexon 3 µg/ml, read-out: TGI (MethA) %Hemmung): -4%
inhibition at 10 µg/mL ([1]; Meth-A, 48 h, Imexon 10 µg/ml, ** p < 0.001, read-out: TGI (MethA) %Hemmung): 35%
inhibition at 30 µg/mL ([1]; Meth-A, 48 h, Imexon 30 µg/ml, ** p < 0.001, read-out: TGI (MethA) %Hemmung): 97%
inhibition at 100 µg/mL ([1]; Meth-A, 48 h, Imexon 100 µg/ml, ** p < 0.001, read-out: TGI (MethA) %Hemmung): 98%
minimal effective concentration ([1]; Meth-A, 48 h, spontaneous proliferation, read-out: Konzentration, ab der die Spontanproliferation von MethA-Sarkomzellen signifikant unterdrückt ist): > 10 µg/mL
höhere Konzentrationen, bei denen die spontane Proliferation von MethA beeinflußt wird [1, 8]: 10-30 fach
Leukozyten [2]: Anstieg der Leukozyten
Zahl der Antikörper bildenden Milzzellen [2]: Anstieg der Zahl der Antikörper bildenden Milzzellen
Tumorwachstum von Walker-Sarkoma 256 [3]: Hemmung des Tumorwachstums
Verträglichkeit ([4]; MRL mice, once daily intraperitoneal): sehr guter Verträglichkeit
Konzentration DNA spezifischer Antikörper [4, 9]: erniedrigt
Zahl spontan entstehender Lymphadenome [4, 9]: erniedrigt
Titer der Autoantikörper [4, 10]: nimmt dosisabhängig ab
Zahl der Lymphadenome [4, 10]: nimmt dosisabhängig ab
Proliferation von B-Lymphozyten [5]: dosisabhängig hemmt
inhibition at 0.1 µg/mL [5, 11]: 13%
inhibition at 0.3 µg/mL [5, 11]: 24%
inhibition at 1 µg/mL [5, 11]: 62%
inhibition at 3 µg/mL [5, 11]: 85%
inhibition at 10 µg/mL [5, 11]: 90%
inhibition at 30 µg/mL [5, 11]: 89%
inhibition at 100 µg/mL [5, 11]: 90%
minimal effective concentration ([5]; Homo sapiens, Lymphocyte, 140 h, read-out: Konzentration, bei der die BCGF-induzierte B-Zellproliferation signifikant und spezifisch supprimiert wird): 1 µg/mL
BCGF (humane B-Lym-phozyten) ^3H-TdR cpm (n=6) x̄ ([5]; Imexon 0.1 µg/ml, 140 h): 4847 cpm
BCGF (humane B-Lym-phozyten) ^3H-TdR cpm (n=6) x̄ ([5]; Imexon 0.3 µg/ml, 140 h): 4201 cpm
BCGF (humane B-Lym-phozyten) ^3H-TdR cpm (n=6) x̄ ([5]; Imexon 1 µg/ml, 140 h): 2096 cpm
BCGF (humane B-Lym-phozyten) ^3H-TdR cpm (n=6) x̄ ([5]; Imexon 3 µg/ml, 140 h): 831 cpm
BCGF (humane B-Lym-phozyten) ^3H-TdR cpm (n=6) x̄ ([5]; Imexon 10 µg/ml, 140 h): 574 cpm
BCGF (humane B-Lym-phozyten) ^3H-TdR cpm (n=6) x̄ ([5]; Imexon 30 µg/ml, 140 h): 617 cpm
BCGF (humane B-Lym-phozyten) ^3H-TdR cpm (n=6) x̄ ([5]; Imexon 100 µg/ml, 140 h): 562 cpm
LTT (Splenozyten, ConA) ^3H-TdR cpm (n=6) x̄ ([6]; Imexon 0.1 µg/ml, 48 h): 109717 cpm
LTT (Splenozyten, ConA) ^3H-TdR cpm (n=6) x̄ ([6]; Imexon 0.3 µg/ml, 48 h): 134032 cpm
LTT (Splenozyten, ConA) ^3H-TdR cpm (n=6) x̄ ([6]; Imexon 1 µg/ml, 48 h): 119120 cpm
LTT (Splenozyten, ConA) ^3H-TdR cpm (n=6) x̄ ([6]; Imexon 3 µg/ml, 48 h): 118487 cpm
LTT (Splenozyten, ConA) ^3H-TdR cpm (n=6) x̄ ([6]; Imexon 10 µg/ml, 48 h): 24895 cpm
LTT (Splenozyten, ConA) ^3H-TdR cpm (n=6) x̄ ([6]; Imexon 30 µg/ml, 48 h): 2509 cpm
LTT (Splenozyten, ConA) ^3H-TdR cpm (n=6) x̄ ([6]; Imexon 100 µg/ml, 48 h): 903 cpm
inhibition at 0.1 µg/mL ([6]; Splenocyte, 48 h, Imexon 0.1 µg/ml, read-out: LTT (Splenozyten, ConA) %Hemmung): 0%
inhibition at 0.3 µg/mL ([6]; Splenocyte, 48 h, Imexon 0.3 µg/ml, read-out: LTT (Splenozyten, ConA) %Hemmung): -22%
inhibition at 1 µg/mL ([6]; Splenocyte, 48 h, Imexon 1 µg/ml, read-out: LTT (Splenozyten, ConA) %Hemmung): -8%
inhibition at 3 µg/mL ([6]; Splenocyte, 48 h, Imexon 3 µg/ml, read-out: LTT (Splenozyten, ConA) %Hemmung): -8%
inhibition at 10 µg/mL ([6]; Splenocyte, 48 h, Imexon 10 µg/ml, ** p < 0.001, read-out: LTT (Splenozyten, ConA) %Hemmung): 77%
inhibition at 30 µg/mL ([6]; Splenocyte, 48 h, Imexon 30 µg/ml, ** p < 0.001, read-out: LTT (Splenozyten, ConA) %Hemmung): 98%
inhibition at 100 µg/mL ([6]; Splenocyte, 48 h, Imexon 100 µg/ml, ** p < 0.001, read-out: LTT (Splenozyten, ConA) %Hemmung): 99%
minimal effective concentration ([6]; Splenocyte, 48 h, induced by ConA, read-out: Konzentrationen, bei denen die Lymphozytenproliferation signifikant gehemmt wird): > 10 µg/mL
höhere Konzentrationen, bei denen die ConA-induzierte Lymphozytenproliferation beeinflußt wird [6, 8]: 10-30 fach
inhibition at 0.1 µg/mL ([7]; Homo sapiens, Lymphocyte, Imexon 0.1 µg/ml, read-out: LTT (Splenozyten, PHA) %Hemmung): 5%
inhibition at 0.3 µg/mL ([7]; Homo sapiens, Lymphocyte, Imexon 0.3 µg/ml, read-out: LTT (Splenozyten, PHA) %Hemmung): -3%
inhibition at 1 µg/mL ([7]; Homo sapiens, Lymphocyte, Imexon 1 µg/ml, read-out: LTT (Splenozyten, PHA) %Hemmung): -11%
inhibition at 3 µg/mL ([7]; Homo sapiens, Lymphocyte, Imexon 3 µg/ml, read-out: LTT (Splenozyten, PHA) %Hemmung): 19%
inhibition at 10 µg/mL ([7]; Homo sapiens, Lymphocyte, Imexon 10 µg/ml, ** p < 0.001, read-out: LTT (Splenozyten, PHA) %Hemmung): 89%
inhibition at 30 µg/mL ([7]; Homo sapiens, Lymphocyte, Imexon 30 µg/ml, ** p < 0.001, read-out: LTT (Splenozyten, PHA) %Hemmung): 99%
inhibition at 100 µg/mL ([7]; Homo sapiens, Lymphocyte, Imexon 100 µg/ml, ** p < 0.001, read-out: LTT (Splenozyten, PHA) %Hemmung): 99%
minimal effective concentration ([7]; Homo sapiens, Lymphocyte, induced by PHA, read-out: Konzentrationen, bei denen die Lymphozytenproliferation signifikant gehemmt wird): > 10 µg/mL
LTT (Splenozyten, PHA) ^3H-TdR cpm (n=6) x̄ ([7]; Imexon 0.1 µg/ml): 41849 cpm
LTT (Splenozyten, PHA) ^3H-TdR cpm (n=6) x̄ ([7]; Imexon 0.3 µg/ml): 45542 cpm
LTT (Splenozyten, PHA) ^3H-TdR cpm (n=6) x̄ ([7]; Imexon 1 µg/ml): 49348 cpm
LTT (Splenozyten, PHA) ^3H-TdR cpm (n=6) x̄ ([7]; Imexon 3 µg/ml): 35850 cpm
LTT (Splenozyten, PHA) ^3H-TdR cpm (n=6) x̄ ([7]; Imexon 10 µg/ml): 4724 cpm
LTT (Splenozyten, PHA) ^3H-TdR cpm (n=6) x̄ ([7]; Imexon 30 µg/ml): 573 cpm
LTT (Splenozyten, PHA) ^3H-TdR cpm (n=6) x̄ ([7]; Imexon 100 µg/ml): 585 cpm
höhere Konzentrationen, bei denen die PHA-induzierte Lymphozytenproliferation beeinflußt wird [7, 8]: 10-30 fach
